This note sets out measurements from patent US5614627A, “Quinazoline compounds” (Eisai Co., Ltd., priority 1993, dated 1997).

The structures appear in SMILES notation. Counter-ions that a name gives are not always drawn.

The target in this test is T1, calmodulin-dependent cGMP-phosphodiesterase (CaM-PDE) (Sus scrofa, UniProt A0A5G2RLV3).
T1 construct: prepared from swine aorta; from tissue; host or cells: swine aorta
Description: enzyme-inhibitory activity with calmodulin-dependent cGMP-phosphodiesterase (CaM-PDE) obtained from swine aorta. As to conditions: 1 μM cGMP as substrate, 1 mM Ca++, calmodulin 250 U/ml, DMSO 4% or below. It counts as biochemical. As to the method: Study on enzyme-inhibitory activity with calmodulin-dependent cGMP-phosphodiesterase obtained from swine aorta The enzyme activity of calmodulin-dependent cGMP-phosphodiesterase (hereinafter referred to CaM-PDE) prepared from swine aorta was determined according to the method of Thompson et al. The emzyme activity was determined in the presence of 1 mM of calcium ion (Ca^++) and calmodulin (250 U/ml) by the use of 1 μM of cGMP as the substrate. The compound of the present invention was dissolved in DMSO and added to the reaction liquid. The final concentration of DMSO in the reaction solution was adjusted to 4% or below. The preparation of the CaM-PDE was effected according to the method [[…]. and Saito, I., Isolation of cyclic nucleotide phosphodiesterase isozymes from pig aorta, Biochem. Pharmacol. in press] by the use of swine aorta. The CaM-PDE inhibitory activity of the compounds of the present invention as determined by the above method are given in Table 1.

On to `COc1cc2c(NCCCC(=O)O)ncnc2c(OC)c1OC` [Example 2, 4-(3-Carboxypropyl)amino-6,7,8-trimethoxyquinazoline], for which it took 0.48 µM to reach half-maximal inhibition (IC50).
In the case of `CCOC(=O)CCCCCNc1ncnc2c(OC)c(OC)c(OC)cc12` [Example 3, 4-(5-Ethoxycarbonylpentyl)amino-6,7,8-trimethoxyquinazoline] it was 2.35 µM; in that of `CCOC(=O)CCNc1ncnc2c(OC)c(OC)c(OC)cc12` [Example 7, 4-(2-Ethoxycarbonylethyl)amino-6,7,8-trimethoxyquinazoline], 4.62 µM.
Consider `O=C(O)CCCCCNc1ncnc2ccc(Cl)cc12` [Example 10, 4-(5-Carboxypentyl)amino-6-chloroquinazolne], for which the 50% inhibitory concentration (IC50) (usually the concentration that inhibits the measured activity by half) came out at 53.9 µM.
As to `COc1cc2c(NCCCCCCC(=O)O)ncnc2c(OC)c1OC` [Example 12, 4-(6-Carboxyhexyl)amino-6,7,8-trimethoxyquinazoline], inhibition was half-maximal at 3.5 µM (IC50).
The molecule `COc1cc2c(NCCC(=O)O)ncnc2c(OC)c1OC` [Example 13, 4-(2-Carboxyethyl)amino-6,7,8-trimethoxyquinazoline] showed an IC50 of 2.37 µM.
In the case of `COc1cc2c(NCCCCC(=O)O)ncnc2c(OC)c1OC` [Example 14, 4-(4-Carboxybutyl)amino-6,7,8-trimethoxyuinazoline] it was 1.29 µM.
The value for `COc1cc2c(NCCCCCCCC(=O)O)ncnc2c(OC)c1OC` [Example 15, 4-(7-Carboxyheptyl)amino-6,7,8,-trimethoxyquinazoline] was 3.62 µM; that for `COc1cc2c(NCCCCCC(=O)O)ncnc2c(OC)c1OC` [Example 16, 4-(5-Carboxypentyl)amino-6,7,8-trimethoxyquinazoline] was 1.65 µM; that for `COc1cc2c(N(C)CCCC(=O)O)ncnc2c(OC)c1OC` [Example 18, 4-[N-(3-Carboxypropyl)-N-methylaminol-]6,7,8, -trimethoxyquinazoline] was 0.73 µM.
The value for `COc1cc2c(N3CCC(C(=O)O)CC3)ncnc2c(OC)c1OC` [Example 20, 4-(4-Carboxypiperidino)-6,7,8-trimethoxyquinazoline] was 0.42 µM.
The molecule `COc1cc2c(NCCCCC#N)ncnc2c(OC)c1OC` [Example 32, 4-(4-Cyanobutyl)amino-6,7,8-trimethoxyquinzaoline] came in with an IC50 of 6.4 µM.
Molecule `COc1cc2c(NCCCO)ncnc2c(OC)c1OC` [Example 35, 4-(3-Hydroxypropyl)amino-6,7.8-trimethoxyquinazoline] registered a half-maximal inhibitory concentration (IC50) of 1.9 µM.
The value for `Clc1ccc2ncnc(NCCCn3ccnc3)c2c1` [Example 38, 6-Chloro-4-[3-(imidazol-1-yl)propyl]aminoquinazoline] was 7.9 µM; that for `CCCNc1ncnc2c(OC)c(OC)c(OC)cc12` [Example 40, 4-Propylamino-6,7-trimethoxyquinazoline] was 0.17 µM; that for `CCN(CC)c1ncnc2c(OC)c(OC)c(OC)cc12` [Example 41, 4-Diethylamino-6,7,8-trimethoxyquinazoline hydrochloride] was 0.3 µM.
On to `CCN(CC)c1ncnc2c(OC)cc(OC)cc12` [Example 43, 4-Diethylamino-6,8-dimethoxyquinazoline hydrochloride], for which 0.74 µM corresponded to half-maximal inhibition (IC50).
For `CCN(CC)c1nc(Cl)nc2c(OC)c(OC)c(OC)cc12` [Example 51, 2-Chloro-4-diethylamino-6,7,8-trimethoxyquinazoline], the IC50 came to 4.3 µM.
In the case of `COc1cc2c(N3CCC(C(=O)c4ccc(F)cc4)CC3)ncnc2c(OC)c1OC` [Example 57, 4-[4-(4-Fluorobenzoyl)piperidino]-6,7,8-trimethoxyquinazoline], 11.6 µM corresponded to half-maximal inhibition (IC50). Compared with the last molecule, the IC50 is about 2.7-fold higher.
With `COc1cc2c(N3CCC(C(O)c4ccc(F)cc4)CC3)ncnc2c(OC)c1OC` (stereo not drawn) [Example 58, 4-[4-(4-Fluoro-α-hydroxybenzyl)piperidino]-6,7,8-trimethoxyquinazolin], half-maximal inhibition (IC50) required 2.8 µM.
In turn, `COc1cc2c(N3CCC(=O)CC3)ncnc2c(OC)c1OC` [Example 61, 4-(4-Oxopiperidino)-6,7,8-trimethoxyquinazoline] yielded an IC50 of 1.1 µM.
In the case of `COc1cc2c(N3CCC(O)CC3)ncnc2c(OC)c1OC` [Example 62, 4-(4-Hydroxypiperidino)-6,7,8-trimethoxyquinazoline] it was 0.74 µM; in that of `COc1cc2c(N3CCN(c4ncccn4)CC3)ncnc2c(OC)c1OC` [Example 65, 4-[4-(2-Pyrimidyl)piperazin-1-yl]-6,7,8-trimethoxyquinazoline], 10.7 µM; in that of `COc1cc2c(N3CCOCC3)ncnc2c(OC)c1OC` [Example 68, 4-Morpholino-6,7,8-trimethoxyquinazoline hydrochloride], 4 µM.
